Values belong to the compound of their own block, whether it stands above or below them.
Tests used:
[1] = test system: Lambsquarter (Chenopodium album); test: Postemergence herbicidal activity, greenhouse spray; type: in vivo; conditions: Table 1, visual score after 2 weeks; for pest or weed control at 500 ppm: rate 500 ppm
Protocol: (§1) When required to ensure good germination and healthy plants, a fungicide treatment and/or other chemical or physical treatment was applied. The plants were grown for 7-21 days in a greenhouse with an approximate 15 hr photoperiod which was maintained at about 23-29° C. during the day and 22-28° C. during the night. Nutrients and water were added on a regular basis and supplemental lighting was provided with overhead metal halide 1000-Watt lamps as necessary. The plants were employed for testing when they reached the first or second true leaf stage. A weighed amount, determined by the highest rate to be tested, of each test compound was placed in a 20 mL glass vial and was dissolved in 4 mL of a 97:3 v/v (volume/volume) mixture of acetone and dimethyl sulfoxide (DMSO) to obtain concentrated stock solutions. […] The concentrated stock solutions obtained were diluted with an aqueous mixture containing acetone, water, isopropyl alcohol, DMSO, At plus 411 F crop oil concentrate, and Triton X-155 surfactant in a 48.5:39:10:1.5:1.0:0.02 v/v ratio to obtain spray solutions of known concentration. The solutions containing the highest concentration to be tested were prepared by diluting 2 mL aliquots of the stock solution with 13 mL of the mixture and lower concentrations were prepared by serial dilution of the stock solution. Approximately 1.5 mL aliquots of each solution of known concentration were sprayed evenly onto each of the test plant pots using a DeVilbiss atomizer driven by compressed air pressure of 2 to 4 psi (140 to 280 kiloPascals) to obtain thorough coverage of each plant. Control plants were sprayed in the same manner with the aqueous mixture. […] The treated plants and control plants were placed in a greenhouse as described above and watered by sub-irrigation to prevent wash-off of the test compounds.

[2] = test system: Barnyardgrass (Echinochloa crus-galli); test: as above; type: in vivo; conditions: Table 1, visual score after 2 weeks; for pest or weed control at 500 ppm: rate 500 ppm
Protocol: as §1

[3] = test system: Cocklebur (Xanthium strumarium); test: as above; type: in vivo; conditions: Table 1, visual score after 2 weeks; for pest or weed control at 500 ppm: rate 500 ppm, 0 no injury, 100 complete kill
Protocol: as §1

[4] = test system: Yellow nutsedge (Cyperus esculentus); test: as above; type: in vivo; conditions: Table 1, visual score after 2 weeks
Protocol: as §1

[5] = test system: Giant Foxtail (Setaria faberi); test: Preemergence herbicidal activity, soil spray; type: in vivo; conditions: Table 5, visual score after 3 weeks
Source text: (§2) Seeds of the desired test plant species were planted in a soil matrix prepared by mixing a loam soil (43 percent silt, 19 percent clay, and 38 percent sand, with a pH of about 8.1 and an organic matter content of about 1.5 percent) and sand in a 70 to 30 ratio. The soil matrix was contained in plastic pots with a surface area of 113 square centimeters. When required to ensure good germination and healthy plants, a fungicide treatment and/or other chemical or physical treatment was applied. A weighed amount, determined by the highest rate to be tested, of each test compound was placed in a 20 mL glass vial and was dissolved in 4 mL of a 97:3 v/v (volume/volume) mixture of acetone and dimethyl sulfoxide to obtain concentrated stock solutions. […] The stock solutions obtained were diluted with a 99.9:0.1 mixture of water and Tween® 155 surfactant to obtain application solutions of known concentration. The solutions containing the highest concentration to be tested were prepared by diluting 2 mL aliquots of the stock solution with 15 mL of the mixture and lower concentrations were prepared by serial dilution of the stock solution. A 2.5 mL aliquot of each solution of known concentration was sprayed evenly onto the soil surface (113 sq. cm) of each seeded pot using a Cornwall 5.0 mL glass syringe fitted with a TeeJet TN-3 hollow cone nozzle to obtain thorough coverage of the soil in each pot. Control pots were sprayed in the same manner with the aqueous mixture. The treated pots and control pots were placed in a greenhouse maintained with an approximate 15 hr photoperiod and temperatures of about 23-29° C. during the day and 22-28° C. during the night. Nutrients and water were added on a regular basis and supplemental lighting was provided with overhead metal halide 1000-Watt lamps as necessary. The water was added by top-irrigation.

[6] = test system: Lambsquarter (Chenopodium album); test: Preemergence herbicidal activity, soil spray; type: in vivo; conditions: Table 5, visual score after 3 weeks
Source text: as §2

[7] = test system: Pigweed (redroot) (Amaranthus retroflexus); test: Preemergence herbicidal activity, soil spray; type: in vivo; conditions: Table 5, visual score after 3 weeks
Source text: as §2

[8] = test system: Crabgrass(large) (Digitaria sanguinalis); test: Preemergence herbicidal activity, soil spray; type: in vivo; conditions: Table 5, visual score after 3 weeks
Source text: as §2

[9] = Setaria faberi, pre-emergence, 504 h, rate 560 ppm, read-out: Pre-emergent % control SETFA
[10] = Chenopodium album, pre-emergence, 504 h, rate 560 ppm, 100 complete kill or no germination, read-out: Pre-emergent % control CHEAL
[11] = Amaranthus retroflexus, pre-emergence, 504 h, rate 560 ppm, read-out: Pre-emergent % control AMARE
[12] = Digitaria sanguinalis, pre-emergence, 504 h, rate 560 ppm, read-out: Pre-emergent % control DIGSA
[13] = Chenopodium album, post-emergence, 336 h, read-out: Post-emergent % control CHEAL
[14] = Echinochloa crus-galli, post-emergence, 336 h, read-out: Post-emergent % control ECHCG
[15] = Xanthium strumarium, post-emergence, 336 h, read-out: Post-emergent % control XANST
[16] = rate 560 ppm, 100 complete kill or no germination
[17] = Chenopodium album, post-emergence, 336 h, rate 125 ppm, read-out: Post-emergent % control CHEAL
[18] = Echinochloa crus-galli, post-emergence, 336 h, rate 125 ppm, read-out: Post-emergent % control ECHCG
[19] = Xanthium strumarium, post-emergence, 336 h, rate 125 ppm, read-out: Post-emergent % control XANST
[20] = Cyperus, post-emergence, 336 h, rate 125 ppm, read-out: Post-emergent % control CYPES
[21] = Setaria faberi, pre-emergence, 504 h, rate 140 ppm, read-out: Pre-emergent % control SETFA
[22] = Amaranthus retroflexus, pre-emergence, 504 h, rate 140 ppm, read-out: Pre-emergent % control AMARE
[23] = Digitaria sanguinalis, pre-emergence, 504 h, rate 140 ppm, read-out: Pre-emergent % control DIGSA

SMILES: COC(=O)c1nc(-c2ccc(Cl)cc2Cl)cc(N)c1Cl [Compound 13, Methyl 4-amino-3-chloro-6-(2,4-dichlorophenyl)pyridine-2-carboxylate]
melting point: 130 to 131 °C
pest or weed control at 250 ppm ([1]; Chenopodium album, post-emergence, 336 h, rate 250 ppm, read-out: Post-emergent % control CHEAL): 100%
pest or weed control at 250 ppm ([2]; Echinochloa crus-galli, post-emergence, 336 h, rate 250 ppm, read-out: Post-emergent % control ECHCG): 70%
pest or weed control at 250 ppm ([3]; Xanthium strumarium, post-emergence, 336 h, rate 250 ppm, read-out: Post-emergent % control XANST): 100%
pest or weed control at 250 ppm ([4]; Cyperus, post-emergence, 336 h, rate 250 ppm, read-out: Post-emergent % control CYPES): 80%
pest or weed control at 560 ppm [5, 9]: 100%
pest or weed control at 560 ppm [6, 10]: 100%
pest or weed control at 560 ppm [7, 11]: 100%
pest or weed control at 560 ppm [8, 12]: 90%

SMILES: COC(=O)c1nc(-c2ccc(C)cc2)cc(-n2cccc2)c1Cl [Compound 89, Methyl 4-N-pyrolyl-3-chloro-6-(4-methylphenyl)pyridine-2-carboxylate]
Post-emergent % control CHEAL ([1]; rate 250 ppm): 100%
Post-emergent % control ECHCG ([2]; rate 250 ppm): 90%
Post-emergent % control XANST ([3]; rate 250 ppm): 100%
Post-emergent % control CYPES ([4]; rate 250 ppm): 50%
Pre-emergent % control SETFA ([5]; rate 560 ppm): 85%
Pre-emergent % control CHEAL [6, 16]: 100%
Pre-emergent % control AMARE ([7]; rate 560 ppm): 100%
Pre-emergent % control DIGSA ([8]; rate 560 ppm): 90%

SMILES: Nc1c(F)c(-c2ccc(C(F)(F)F)cc2)nc(C(=O)O)c1Cl [Compound 172, 4-Amino-3-chloro-5-fluoro-6-(4-trifluorophenyl)pyridine-2-carboxylic acid]
Post-emergent % control CHEAL ([1]; rate 125 ppm): 90%
Post-emergent % control ECHCG ([2]; rate 125 ppm): 90%
Post-emergent % control XANST ([3]; rate 125 ppm): 100%
Post-emergent % control CYPES ([4]; rate 125 ppm): 90%
Pre-emergent % control SETFA ([5]; rate 140 ppm): 90%
Pre-emergent % control CHEAL ([6]; rate 140 ppm): 90%
Pre-emergent % control AMARE ([7]; rate 140 ppm): 95%
Pre-emergent % control DIGSA ([8]; rate 140 ppm): 95%

SMILES: Nc1c(F)c(-c2ccc(Cl)cc2)nc(C(=O)O)c1Cl [Compound 173, 4-Amino-3-chloro-5-fluoro-6-(4-chlorophenyl)pyridine-2-carboxylic acid]
pest or weed control at 500 ppm [1, 13]: 100%
pest or weed control at 500 ppm [2, 14]: 100%
pest or weed control at 500 ppm [3, 15]: 100%
pest or weed control at 500 ppm ([4]; Cyperus, post-emergence, 336 h, rate 500 ppm, read-out: Post-emergent % control CYPES): 100%
pest or weed control at 560 ppm [5, 9]: 100%
pest or weed control at 560 ppm [6, 10]: 100%
pest or weed control at 560 ppm [7, 11]: 100%
pest or weed control at 560 ppm [8, 12]: 100%

SMILES: Cc1ccc(-c2cc(-n3cccc3)c(Cl)c(C(=O)O)n2)cc1 [Compound 180, 3-chloro-6-(4-methylphenyl)-4-(N-pyrolyl)pyridine-2-carboxylic acid]
Post-emergent % control CHEAL ([1]; rate 250 ppm): 100%
Post-emergent % control ECHCG ([2]; rate 250 ppm): 70%
Post-emergent % control XANST ([3]; rate 250 ppm): 80%
Post-emergent % control CYPES ([4]; rate 250 ppm): 30%
Pre-emergent % control SETFA ([5]; rate 560 ppm): 100%
Pre-emergent % control CHEAL [6, 16]: 100%
Pre-emergent % control AMARE ([7]; rate 560 ppm): 100%
Pre-emergent % control DIGSA ([8]; rate 560 ppm): 95%

SMILES: Nc1cc(-c2ccc(C(F)(F)F)cc2Cl)nc(C(=O)O)c1Cl [Compound 184, 4-Amino-3-chloro-6-(2-chloro-4-(trifluoromethyl)phenyl)pyridine-2-carboxylic acid]
pest or weed control at 125 ppm [1, 17]: 70%
pest or weed control at 125 ppm [2, 18]: 70%
pest or weed control at 125 ppm [3, 19]: 100%
pest or weed control at 125 ppm [4, 20]: 40%
pest or weed control at 140 ppm [5, 21]: 70%
pest or weed control at 140 ppm ([6]; Chenopodium album, pre-emergence, 504 h, rate 140 ppm, read-out: Pre-emergent % control CHEAL): 90%
pest or weed control at 140 ppm [7, 22]: 85%
pest or weed control at 140 ppm [8, 23]: 90%

Second part, led by results:

melting point: 119 °C
SMILES: CCc1ccc(-c2cc(N)c(Cl)c(C(=O)OC)n2)cc1 [Compound 30, Methyl 4-amino-3-chloro-6-(4-ethylphenyl)pyridine-2-carboxylate]
pest or weed control at 560 ppm [5, 9]: 70%
pest or weed control at 560 ppm [6, 10]: 90%
pest or weed control at 560 ppm [7, 11]: 100%
pest or weed control at 560 ppm [8, 12]: 100%

melting point: 107 to 109 °C
SMILES: COC(=O)c1nc(-c2ccc(Cl)cc2F)cc(N)c1Cl [Compound 59, Methyl 4-amino-3-chloro-6-(4-chloro-2-fluorophenyl)pyridine-2-carboxylate]
pest or weed control at 500 ppm [1, 13]: 100%
pest or weed control at 500 ppm [2, 14]: 80%
pest or weed control at 500 ppm [3, 15]: 100%
pest or weed control at 280 ppm ([5]; Setaria faberi, pre-emergence, 504 h, rate 280 ppm, read-out: Pre-emergent % control SETFA): 100%
pest or weed control at 280 ppm ([6]; Chenopodium album, pre-emergence, 504 h, rate 280 ppm, read-out: Pre-emergent % control CHEAL): 100%
pest or weed control at 280 ppm ([7]; Amaranthus retroflexus, pre-emergence, 504 h, rate 280 ppm, read-out: Pre-emergent % control AMARE): 100%
pest or weed control at 280 ppm ([8]; Digitaria sanguinalis, pre-emergence, 504 h, rate 280 ppm, read-out: Pre-emergent % control DIGSA): 100%

melting point: 176 °C
SMILES: Nc1cc(-c2ccc(Cl)c(C(F)(F)F)c2)nc(C(=O)O)c1Cl [Compound 179, 4-Amino-3-chloro-6-(4-chloro-3-(trifluoromethyl)phenyl)pyridine-2-carboxylic acid]
pest or weed control at 560 ppm [5, 9]: 98%
pest or weed control at 560 ppm [6, 10]: 100%
pest or weed control at 560 ppm [7, 11]: 100%
pest or weed control at 560 ppm [8, 12]: 98%

melting point: 174 to 175 °C
SMILES: Nc1c(F)c(C(=O)O)nc(-c2ccc3c(c2)OCO3)c1F [Compound 207, 4-Amino-3,5-difluoro-6-(3,4-methylenedioxyphenyl)pyridine-2-carboxylic acid]
pest or weed control at 125 ppm [1, 17]: 70%
pest or weed control at 125 ppm [2, 18]: 70%
pest or weed control at 125 ppm [3, 19]: 90%
pest or weed control at 125 ppm [4, 20]: 40%
pest or weed control at 140 ppm [5, 21]: 50%
pest or weed control at 140 ppm [7, 22]: 100%
pest or weed control at 140 ppm [8, 23]: 95%

melting point: 110 to 114 °C
SMILES: Nc1cc(-c2ccc(Cl)nc2)nc(C(=O)O)c1Cl [Compound 225, 4-Amino-3-chloro-6-(6-chloro-3-pyridinyl)pyridine-2-carboxylic acid]
pest or weed control at 125 ppm [1, 17]: 70%
pest or weed control at 125 ppm [2, 18]: 40%
pest or weed control at 125 ppm [3, 19]: 90%
pest or weed control at 125 ppm [4, 20]: 60%

Source: US6784137B2, “6-aryl-4-aminopicolinates and their use as herbicides” (Dow AgroSciences LLC, priority 2001, dated 2004)
